# Results taken from ChEMBL document CHEMBL1149734, “Molluscicidal acridone alkaloids from Angostura paniculata: isolation, structures, and synthesis” (J Nat Prod, 1992).
# Activity calls are given as the source filed them. The rule behind the calls is not given here.
# Experiments:
# Biomphalaria glabrata = assay: Molluscicidal activity against Biomphalaria glabrata; format: functional
# HeLa = assay: Cytotoxicity against human HeLa cells by MTT assay; format: functional, cell-based
# BT-20 = assay: Growth inhibition of human BT20 cells by MTT assay; format: functional, cell-based
SMILES,LC50 (Biomphalaria glabrata),IC50 (HeLa),growth inhibition (GI) (BT-20)
COc1cc2[nH]c3c(OC)c(OC)ccc3c(=O)c2c(O)c1OC [CUSPANINE],5 µg/mL,2.5 µg/mL,Active
COc1cc2[nH]c3c(OC)c(OC)ccc3c(=O)c2c(OC)c1OC [CUSCULINE],20 µg/mL,8.5 µg/mL,Active
